The record followed here is paper PMC12446458, “Structural basis for DNA break sensing by human MRE11-RAD50-NBS1 and its regulation by telomeric factor TRF2” (Nature Communications, 2025).

Broadly, the Kd is the constant that tells how readily two partners part at equilibrium.

Series [1] deals with T1, MRN complex (human MRE11-RAD50-NBS1) (Homo sapiens, UniProt Q92878).
T1 construct: Expi293F (MRE11 H129N) or Hi5 insect cells (wild type); with Double-strand break repair protein MRE11; Nibrin
T1 sequence (Q92878 1-1312): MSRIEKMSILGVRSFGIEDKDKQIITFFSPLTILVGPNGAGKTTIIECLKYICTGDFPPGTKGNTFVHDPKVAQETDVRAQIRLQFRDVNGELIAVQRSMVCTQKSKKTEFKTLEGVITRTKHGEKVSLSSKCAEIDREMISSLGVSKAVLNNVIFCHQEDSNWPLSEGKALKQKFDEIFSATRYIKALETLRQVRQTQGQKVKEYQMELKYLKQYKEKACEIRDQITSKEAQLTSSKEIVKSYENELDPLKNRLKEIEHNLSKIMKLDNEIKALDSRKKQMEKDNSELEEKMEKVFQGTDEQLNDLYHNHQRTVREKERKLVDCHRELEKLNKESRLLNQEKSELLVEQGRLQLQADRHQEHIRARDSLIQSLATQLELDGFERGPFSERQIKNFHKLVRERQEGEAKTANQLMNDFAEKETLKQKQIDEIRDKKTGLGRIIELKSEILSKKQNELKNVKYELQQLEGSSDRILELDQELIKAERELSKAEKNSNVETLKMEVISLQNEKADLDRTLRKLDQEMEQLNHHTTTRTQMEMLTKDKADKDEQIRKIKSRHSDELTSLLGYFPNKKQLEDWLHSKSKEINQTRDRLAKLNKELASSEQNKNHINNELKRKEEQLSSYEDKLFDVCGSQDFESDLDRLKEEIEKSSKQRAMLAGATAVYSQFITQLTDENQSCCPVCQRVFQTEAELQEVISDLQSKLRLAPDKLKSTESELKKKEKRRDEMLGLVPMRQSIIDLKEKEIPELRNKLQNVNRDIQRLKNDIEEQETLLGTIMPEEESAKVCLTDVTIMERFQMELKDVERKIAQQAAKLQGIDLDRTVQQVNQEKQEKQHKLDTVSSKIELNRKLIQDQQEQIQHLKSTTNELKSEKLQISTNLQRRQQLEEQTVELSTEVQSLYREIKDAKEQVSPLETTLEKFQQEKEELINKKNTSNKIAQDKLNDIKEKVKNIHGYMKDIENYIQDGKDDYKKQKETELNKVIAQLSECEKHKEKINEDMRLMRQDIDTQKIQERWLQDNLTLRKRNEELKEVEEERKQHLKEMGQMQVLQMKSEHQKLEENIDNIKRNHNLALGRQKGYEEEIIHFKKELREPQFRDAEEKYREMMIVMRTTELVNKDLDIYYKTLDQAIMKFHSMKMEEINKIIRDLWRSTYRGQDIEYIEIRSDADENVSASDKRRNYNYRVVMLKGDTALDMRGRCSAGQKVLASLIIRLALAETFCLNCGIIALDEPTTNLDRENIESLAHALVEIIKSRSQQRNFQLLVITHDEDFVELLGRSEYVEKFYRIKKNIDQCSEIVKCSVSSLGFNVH
T1 sequence (P49959 2-708 partner): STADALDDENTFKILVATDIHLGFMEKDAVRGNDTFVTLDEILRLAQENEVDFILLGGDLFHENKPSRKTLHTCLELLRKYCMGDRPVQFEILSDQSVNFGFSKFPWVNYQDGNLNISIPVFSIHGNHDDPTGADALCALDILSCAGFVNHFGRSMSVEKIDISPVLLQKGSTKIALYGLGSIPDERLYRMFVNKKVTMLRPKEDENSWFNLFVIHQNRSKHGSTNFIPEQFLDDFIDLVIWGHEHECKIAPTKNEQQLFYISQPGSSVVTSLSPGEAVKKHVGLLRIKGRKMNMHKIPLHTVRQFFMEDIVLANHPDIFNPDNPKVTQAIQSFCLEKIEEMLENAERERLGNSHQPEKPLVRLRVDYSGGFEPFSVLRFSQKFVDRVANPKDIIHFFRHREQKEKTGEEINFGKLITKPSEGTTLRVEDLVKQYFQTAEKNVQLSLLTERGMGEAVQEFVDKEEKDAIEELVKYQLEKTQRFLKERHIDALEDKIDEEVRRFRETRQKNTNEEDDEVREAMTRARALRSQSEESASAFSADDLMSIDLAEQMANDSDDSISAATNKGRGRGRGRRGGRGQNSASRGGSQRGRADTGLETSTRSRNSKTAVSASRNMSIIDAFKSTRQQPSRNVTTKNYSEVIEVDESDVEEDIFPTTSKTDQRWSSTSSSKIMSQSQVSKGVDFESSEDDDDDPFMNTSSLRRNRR
T1 sequence (O60934 1-754 partner): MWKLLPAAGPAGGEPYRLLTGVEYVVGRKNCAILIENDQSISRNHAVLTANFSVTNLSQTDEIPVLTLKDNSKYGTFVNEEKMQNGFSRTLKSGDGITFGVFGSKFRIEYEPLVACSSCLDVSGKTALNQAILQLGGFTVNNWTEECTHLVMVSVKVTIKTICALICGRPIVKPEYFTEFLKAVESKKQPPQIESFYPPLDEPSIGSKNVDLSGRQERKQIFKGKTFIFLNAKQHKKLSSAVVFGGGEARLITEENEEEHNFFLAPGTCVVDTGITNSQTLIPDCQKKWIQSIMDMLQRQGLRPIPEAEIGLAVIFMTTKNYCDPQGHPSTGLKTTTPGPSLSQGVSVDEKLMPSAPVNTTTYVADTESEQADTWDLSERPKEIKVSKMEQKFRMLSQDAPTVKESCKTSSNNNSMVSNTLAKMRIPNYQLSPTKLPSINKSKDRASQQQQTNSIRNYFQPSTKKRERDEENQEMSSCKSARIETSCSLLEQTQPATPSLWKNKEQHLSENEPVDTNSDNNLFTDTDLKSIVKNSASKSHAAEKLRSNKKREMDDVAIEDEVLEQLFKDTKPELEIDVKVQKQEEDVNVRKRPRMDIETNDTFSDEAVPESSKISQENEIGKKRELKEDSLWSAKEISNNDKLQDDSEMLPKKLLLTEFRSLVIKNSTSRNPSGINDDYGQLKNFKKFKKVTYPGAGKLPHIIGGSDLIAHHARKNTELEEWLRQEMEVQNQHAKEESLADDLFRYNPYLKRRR
Nature of the series: NADH-coupled ATPase assay. The series is classed as biochemical. The note with it: 0.15 mM ATP, 2 mM MgCl2, 1 mM MnCl2, pH 7.5, 37 °C; with and without 64 bp Myb DNA; rate in figure only; MRE11 wild type or H129N not clearly told for this assay.

Series [2] addresses T2, MR complex (human MRE11-RAD50) (Homo sapiens, UniProt Q92878).
T2 construct: MR complex, no NBS1; with Double-strand break repair protein MRE11
T2 sequence (Q92878 1-1312): T1 sequence (Q92878 1-1312)
T2 sequence (P49959 2-708 partner): T1 sequence (P49959 2-708 partner)
As to the kind of experiment: NADH-coupled ATPase assay. The class given is biochemical. The note with it: 0.15 mM ATP, 2 mM MgCl2, 1 mM MnCl2, pH 7.5, 37 °C; with and without 64 bp Myb DNA; rate in figure only.

The target of another series is TRF2 full length (Homo sapiens, UniProt Q15554 1-542). As to the kind of experiment: fluorescence anisotropy; 1 mM ATP, 5 mM Mg2+; two specific binding sites fit; FA: 25 mM HEPES pH 8.0, 100 mM NaCl, 5 mM MgCl2, 0.2 mg/ml BSA, 1 mM DTT, 1 mM ATP unless stated, 30 nM 6-FAM DNA, read over 30 min; temperature not stated. The note with it: protein: recombinant; tags: MBP removed (3C); C-terminal His10; chain copies: 2; blunt.
Sequence of TRF2 full length (Q15554 whole entry): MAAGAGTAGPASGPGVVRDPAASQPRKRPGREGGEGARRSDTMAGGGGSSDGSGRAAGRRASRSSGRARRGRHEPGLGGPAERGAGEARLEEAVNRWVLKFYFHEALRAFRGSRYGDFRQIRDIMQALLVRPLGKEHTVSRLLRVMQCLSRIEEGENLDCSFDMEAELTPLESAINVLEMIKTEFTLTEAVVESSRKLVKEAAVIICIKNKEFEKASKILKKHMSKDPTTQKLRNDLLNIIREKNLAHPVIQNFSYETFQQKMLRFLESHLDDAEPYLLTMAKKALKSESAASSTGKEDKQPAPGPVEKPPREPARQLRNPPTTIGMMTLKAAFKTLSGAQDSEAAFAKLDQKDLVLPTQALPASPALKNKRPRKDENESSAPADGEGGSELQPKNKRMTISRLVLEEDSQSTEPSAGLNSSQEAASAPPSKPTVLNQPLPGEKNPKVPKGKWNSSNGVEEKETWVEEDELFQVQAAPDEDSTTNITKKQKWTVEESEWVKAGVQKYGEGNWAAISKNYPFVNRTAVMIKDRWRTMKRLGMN

Take `Nc1ncnc2c1ncn2[C@@H]1O[C@H](COP(=O)(O)OP(=O)(O)OP(=O)(O)O)[C@@H](O)[C@H]1O` [ATP]: the “NADH-coupled ATPase assay” value in series [1] is “The purified MRN complex showed the characteristic DNA-stimulated ATPase activity”; in series [2], “ATPase activity of MR(N) complex stimulated by DNA binding”.

B1: 64 bp Myb DNA, 6-FAM (dsDNA)
DNA 1: TCTAGGGTTAGGGTTAGATTAACGCTTCTGGAGAAACTCAACGAGCTCTAACCCTAACCCTAGA
DNA 2: TCTAGGGTTAGGGTTAGAGCTCGTTGAGTTTCTCCAGAAGCGTTAATCTAACCCTAACCCTAGA
For B1, in the series with TRF2 full length, the equilibrium dissociation constant (Kd) was found to be 121 nM.
